Laboratory results: ChEMBL document CHEMBL1134052, “A new C-nucleoside analogue of tiazofurin: synthesis and biological evaluation of 2-beta-D-ribofuranosylimidazole-4-carboxamide (imidazofurin)” (Bioorg Med Chem Lett, 2001)

Legend:
[1] = system: K562; test: Ability to inhibit the growth of human myelogenous leukemia K562 cells; type: functional, cell-based
[2] = system: K562; test: Ability to inhibit the growth of human myelogenous leukemia K562 cells at 100 uM; no growth; type: functional, cell-based

IC50 [1] [µM] | SMILES | Activity [2]
4.6 | NC(=O)c1csc([C@@H]2O[C@H](CO)[C@@H](O)[C@H]2O)c1 | 
 | NC(=O)c1c[nH]c([C@@H]2O[C@H](CO)[C@@H](O)[C@H]2O)n1 | no growth
